Measured values reported in patent publication US20100222434A1, “PHARMACEUTICAL COMPOSITION FOR […]-BETA PROTEIN ACCUMULATION” (Sumitomo Chemical Company, Limited, priority 2007, published 2010).

Test system: Aβ accumulation in cultured nerve cells (CHP212 cells)
Experiment: Measurement of fluctuation in the amount of Aβ accumulation in cultured nerve cells
Assay type: cell-based
Conditions: human neuroblastoma CHP212 cells; Aβ in the medium by ELISA (Amyloid β1-42 kit) 48 hours after addition of test substance; 10^−11 M to 10^−6 M; versus DMSO control (100%)
Source text: FIG. 1 is a diagram showing results of measuring fluctuation caused by a test substance of the formula (II) in the amount of Aβ accumulation in cultured nerve cells (CHP212 cells).
In the diagram, each column represents, starting from the left, a result of measurement obtained in a control well to which only a solvent (DMSO) has been added, in a well to which the test substance has been added so that its final concentration can be 10^−11 M (10^−11 M), in a well to which the test substance has been added so that its final concentration can be 10^−10 M (10^−10 M), in a well to which the test substance A has been added so that its final concentration can be 10^−9 M (10^−9 M), in a well to which the test substance has been added so that its final concentration can be 10^−8 M (10^−8 M), in a well to which the test substance has been added so that its final concentration can be 10^−7 M (10^−7 M), and in a well to which the test substance has been added so that its final concentration can be 10^−6 M (10^−6 M). The results are shown in % by setting a result obtained in a control well to which only a solvent (DMSO) has been added as 100%. […]

Q: Which “amount of Aβ accumulation” value does the source give for CCCN(CC1CC1)c1ccc(C#N)c(C(F)(F)F)c1 [formula (II)] here?
A: Its value is “markedly decreased”.
